Test results published in US8802597B2, “Herbicidal pyrimidines” (E I du Pont de Nemours and Company, priority 2003, dated 2014).

Key:
Format in all cases: in vivo
[1] = test system: daisy fleabane (Erigeron spp.); test: Test L field study, Compound 1 and nicosulfuron; details: Nicosulfuron 18 g a.i./ha, approximately 56 days after treatment
Text: (§1) This field study included treatments that consisted of Compound 1 and nicosulfuron alone and in combination on Canada thistle (Cirsium arvense) and daisy fleabane (Erigeron spp.). The plants ranged from 20 to 30 cm in height at the time of application during the month of May in the vicinity of Newark, Del. Compound 1 was formulated as a wettable powder containing 25% active ingredient by weight. Nicosulfuron was in the form of Accent® Herbicide, a water-dispersible granule formulation containing 75% active ingredient by weight. The formulations were dispersed in water in the sprayer tank before treatment. The treatments were made using a backpack sprayer calibrated to deliver 24 gallons per acre (224 L per hectare) to a 10 ft×30 ft (3 m×9 m) plot. Each treatment was replicated two times. The effects on the plants approximately 56 days after treatment were visually compared to untreated controls. Plant response ratings were calculated as the means of the two replicates, based on a scale of 0 to 100 where 0 is no effect and 100 is complete control. Colby's Equation was used to determine the herbicidal effects expected from the mixture.

[2] = test system: Canada thistle (Cirsium arvense); test: Test L field study, Compound 1 and nicosulfuron; details: Nicosulfuron 18 g a.i./ha, approximately 56 days after treatment
Text: as §1

[3] = test system: wild buckwheat (POLCO; Polygonum convolvulus); test: Test I mixtures of compound 9 with metsulfuron-methyl and chlorsulfuron-metsulfuron-methyl (5:1); details: applied alone
Text: (§2) This test evaluated the effect of mixtures of compound 9 with metsulfuron-methyl and with a 5:1 by weight combination of chlorsulfuron and metsulfuron-methyl on several plant species. Seeds of test plants consisting of wheat (TRZAW; Triticum aestivum), wild buckwheat, (POLCO; Polygonum convolvulus), redroot pigweed (AMARE; Amaranthus retroflexus), wild mustard (SINAR; Sinapis arvensis), catchweed bedstraw (GALAP; Galium aparine), Russian thistle (SASKR; Salsola kali), common chickweed (STEME; Stellaria media), kochia (KCHSC; Kochia scoparia), and lambsquarters (CHEAL; Chenopodium album) were planted into a blend of loam soil and sand. Plants were grown in a greenhouse using supplemental lighting to maintain a photoperiod of about 14 hours; daytime and nighttime temperatures were about 23° C. and 16° C., respectively. Balanced fertilizer was applied through the watering system. The plants were grown for 10 to 23 days so that at time of treatment the plants ranged from 2- to 8-leaf stage. Treatments consisted of Compound 9, metsulfuron-methyl, and chlorsulfuron-metsulfuron-methyl (5:1) alone and in combination. The treatments were formulated in a non-phytotoxic solvent mixture which included a surfactant and applied as a foliage spray using a volume of 280-458 L/ha. Each treatment was replicated three times. […] Treated plants and controls were maintained in the greenhouse and watered as needed with care to not wet the foliage for the first 24 hours after treatment. The effects on the plants approximately 17 days after treatment were visually compared to untreated controls. Plant response ratings were calculated as the means of the three replicates, based on a scale of 0 to 100 where 0 is no effect and 100 is complete control. Colby's Equation was used to determine the herbicidal effects expected from the mixtures.

[4] = test system: Russian thistle (SASKR; Salsola kali); test: as above; details: applied alone
Text: as §2

[5] = test system: wheat (TRZAW; Triticum aestivum); test: as above; details: Metsulfuron-Methyl series, applied alone
Text: as §2

[6] = test system: wild mustard (SINAR; Sinapis arvensis); test: as above; details: applied alone
Text: as §2

[7] = test system: catchweed bedstraw (GALAP; Galium aparine); test: as above; details: applied alone
Text: as §2

[8] = test system: redroot pigweed (AMARE; Amaranthus retroflexus); test: as above; details: applied alone
Text: as §2

[9] = test system: common chickweed (STEME; Stellaria media); test: as above; details: applied alone
Text: as §2

[10] = test system: lambsquarters (CHEAL; Chenopodium album); test: as above; details: applied alone
Text: as §2

[11] = test system: kochia (KCHSC; Kochia scoparia); test: as above; details: applied alone
Text: as §2

SMILES | Obsd. observed effect (0 to 100 scale) [1] | Obsd. observed effect (0 to 100 scale) [2] | POLCO Obsd. (observed effect) ([3]; 4 g a.i./ha) | POLCO Obsd. (observed effect) ([3]; 8 g a.i./ha) | SASKR Obsd. (observed effect) ([4]; 4 g a.i./ha) | SASKR Obsd. (observed effect) ([4]; 8 g a.i./ha) | TRZAW Obsd. (observed effect) ([5]; 4 g a.i./ha) | TRZAW Obsd. (observed effect) ([5]; 8 g a.i./ha) | SINAR Obsd. (observed effect) ([6]; 4 g a.i./ha) | SINAR Obsd. (observed effect) ([6]; 8 g a.i./ha) | GALAP Obsd. (observed effect) ([7]; 4 g a.i./ha) | GALAP Obsd. (observed effect) ([7]; 8 g a.i./ha) | AMARE Obsd. (observed effect) ([8]; 4 g a.i./ha) | AMARE Obsd. (observed effect) ([8]; 8 g a.i./ha) | STEME Obsd. (observed effect) ([9]; 4 g a.i./ha) | STEME Obsd. (observed effect) ([9]; 8 g a.i./ha) | CHEAL Obsd. (observed effect) ([10]; 4 g a.i./ha) | CHEAL Obsd. (observed effect) ([10]; 8 g a.i./ha) | KCHSC Obsd. (observed effect) ([11]; 4 g a.i./ha) | KCHSC Obsd. (observed effect) ([11]; 8 g a.i./ha)
COc1cc(OC)nc(NC(=O)NS(=O)(=O)c2ncccc2C(=O)N(C)C)n1 [Nicosulfuron, nicosulfuron, reference compound] | 28 | 15 | – | – | – | – | – | – | – | – | – | – | – | – | – | – | – | – | – | –
COC(=O)c1ccccc1S(=O)(=O)NC(=O)Nc1nc(C)nc(OC)n1 [Metsulfuron-Methyl] | – | – | 0 | 0 | 0 | 0 | 0 | 0 | 0 | 0 | 0 | 0 | 0 | 0 | 0 | 0 | 0 | 0 | 0 | 0
